Laboratory results reported in PubChem BioAssay AID2060611 (Molecular Pharmacology Branch, DTP, NCI, 2025).

System: 628569-122-R-J1-PDC complex spheroid viability
Test: Anticancer human tumor 628569-122-R-J1-PDC patient-derived head and neck squamous carcinoma cell line growth inhibition [CLK]
Details: for IC50: curve of first compound; for viability, T/C: stronger effect = lower value
Text: A high-throughput screen of multi-cell type tumor spheroids was designed to identify active combinations of […] and targeted small molecules. Complex spheroids include a stromal component modeled by human endothelial cells (HUVEC) and fibroblasts modeled by human mesenchymal stem cells (MSCs). The concentration ranges selected for each drug and investigational agent were based upon clinically achievable concentrations if the clinical Cmax of the agent was known.
Compounds. The drugs and investigational agents: cirtuvivint (SM08502; NSC835563), CC-671 (NSC850746), vemurafenib (NSC761431), tapotoclax (NSC804041), sotorasib (NSC818433), adagrasib (NSC831453), MRTX-1133 (NSC836407), BAY2416964 (NSC825713), copanlisib (NSC816437), inavolisib (NSC800729), abemaciclib (NSC768073), osimertinib (NSC779217), entinostat (NSC756642), eltanexor (KPT-8602, NSC794443), venetoclax (NSC766270), ceralasertib (NSC777638), bortezomib (NSC756655), olaparib (NSC753686), talazoparib (NSC767125), alisertib (NSC759677), peposertib (NSC802822), gemcitabine (NSC613327), 5-fluorouracil (NSC19893), SN-38 (NSC673596), oxaliplatin (NSC266046), paclitaxel (NSC125973), and doxorubicin (NSC123127), were obtained from the National Cancer Institute (NCI) Developmental Therapeutics Program Chemical Repository. The FDA-approved anticancer drug set is available from the Developmental Therapeutics Program at https://dtp.cancer.gov/organization/dscb/obtaining/available plates.htm. […] The stock solutions were prepared in dimethyl sulfoxide (DMSO, Sigma-Aldrich, St. Louis, MO, cat. D2650), except for the platinum complexes which were prepared in saline (Quality Biological, Gaithersburg, MD, cat. 114-055-101), at 800-fold the tested concentration and stored at -70 degrees C prior to their use. All drugs and investigational agents were tested over a range starting from a high concentration at or near the clinical Cmax and decreasing in half-log increments. If the clinical Cmax for an agent had not been determined, the highest concentration tested was 10 microM.
Cell Culture. All cells were maintained in an incubator at 37 degrees C and 5% CO2 with 95% humidity. The PDC lines were cultured according to standard operating procedures established by the NCI PDMR. Briefly, all PDCs were thawed and cultured in Matrigel-coated flasks prepared with a working solution of 1X Ham's F-12 nutrient mix, without supplementation (Invitrogen, Waltham, MA, cat. 11765054), 100 U/mL penicillin-streptomycin (Invitrogen, cat. 15140122), and 2.5% Matrigel (Corning Inc., Corning, NY, cat. 354248) for the first three passages. The 947758-054-R-J2-PDC line was cultured in 6B/Colon 1A media, which includes advanced DMEM/F-12 (Thermo Fisher Scientific, cat. 12634028), 10 mM HEPES (Thermo Fisher Scientific, cat. 15630080), 1X GlutaMAX supplement (Thermo Fisher Scientific, cat. 35050061), 0.1 mg/mL primocin (InvivoGen, cat. ant-pm-2), 10% defined fetal bovine serum, heat inactivated (HyClone Laboratories Inc., cat. SH30070.03HI), 1.25 mM N-Acetyl-L-cysteine (Sigma-Aldrich, cat. A9165), 10 mM nicotinamide (Sigma-Aldrich, cat. N0636), 1X B-27 supplement (Thermo Fisher Scientific, cat. 17504044), 1X N-2 supplement (Thermo Fisher Scientific, cat. 17502048), and 10 microM Y-27632 dihydrochloride (Tocris Bioscience, cat. 1254). The 876862-298-R-J1-PDC was cultured in 6E media, which includes all 6B/Colon 1A media components plus 50% L-WRN conditioned media (ATCC, cat. CRL-3276), 50 ng/mL recombinant human EGF recombinant protein (hEGF; Thermo Fisher Scientific, cat. PHG0311), 10 ng/mL recombinant human fibroblast growth factor 10 (hGFG-10; PeproTech, cat. 100-26), 1 ng/mL recombinant human fibroblast growth factor 2 (hFGF-2; PeproTech, cat. 100-18B), and 1 µM prostaglandin E2 (PGE2; Tocris, cat. 2296). The 227483-062-R1-J1-PDC line was cultured in Panc media, containing all 6E components except hFGF-2, with the addition of 500 nM SB-431542 (Selleckchem, cat. S1067) and 10 nM gastrin (Tocris, cat. 3006). […]

[1] = second compound 0.0316 µM, first compound 0.0316 µM
[2] = second compound 0.0316 µM, first compound 0.1 µM
[3] = second compound 0.0316 µM, first compound 0.316 µM
[4] = second compound 0.0316 µM, first compound 1 µM
[5] = second compound 0.0316 µM, first compound 3.16 µM
[6] = second compound 0.0316 µM, first compound 10 µM
[7] = second compound 0.1 µM, first compound 0.0316 µM
[8] = second compound 0.1 µM, first compound 0.1 µM
[9] = second compound 0.1 µM, first compound 0.316 µM
[10] = second compound 0.1 µM, first compound 1 µM
[11] = second compound 0.1 µM, first compound 3.16 µM
[12] = second compound 0.1 µM, first compound 10 µM
[13] = second compound 0.316 µM, first compound 0.0316 µM
[14] = second compound 0.316 µM, first compound 0.1 µM
[15] = second compound 0.316 µM, first compound 0.316 µM
[16] = second compound 0.316 µM, first compound 1 µM
[17] = second compound 0.316 µM, first compound 3.16 µM
[18] = second compound 0.316 µM, first compound 10 µM
[19] = second compound 1 µM, first compound 0.0316 µM
[20] = second compound 1 µM, first compound 0.1 µM
[21] = second compound 1 µM, first compound 0.316 µM
[22] = second compound 1 µM, first compound 1 µM
[23] = second compound 1 µM, first compound 3.16 µM
[24] = second compound 1 µM, first compound 10 µM
[25] = second compound 3.16 µM, first compound 0.0316 µM
[26] = second compound 3.16 µM, first compound 0.1 µM
[27] = second compound 3.16 µM, first compound 0.316 µM
[28] = second compound 3.16 µM, first compound 1 µM
[29] = second compound 3.16 µM, first compound 3.16 µM
[30] = second compound 3.16 µM, first compound 10 µM
[31] = second compound 10 µM, first compound 0.0316 µM
[32] = second compound 10 µM, first compound 0.1 µM
[33] = second compound 10 µM, first compound 0.316 µM
[34] = second compound 10 µM, first compound 1 µM
[35] = second compound 10 µM, first compound 3.16 µM
[36] = second compound 10 µM, first compound 10 µM
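Note: spheroids exposed to agents for seven days before readout.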
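Throughout, for viability, T/C: 100% = DMSO vehicle control viability.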

SMILES: CCCS(=O)(=O)Nc1ccc(F)c(C(=O)c2c[nH]c3ncc(-c4ccc(Cl)cc4)cc23)c1F + CN1CCN(c2cc(C(=O)Nc3cc4cc(-c5cnn(C)c5)ccc4cn3)ccn2)CC1
- IC50 (second compound 0.0316 µM): > 10000 nM
- IC50 (second compound 0.1 µM): > 10000 nM
- IC50 (second compound 0.316 µM): < 31.6 nM
- IC50 (second compound 1 µM): < 31.6 nM
- IC50 (second compound 3.16 µM): < 31.6 nM
- IC50 (second compound 10 µM): < 31.6 nM
- viability, T/C [1]: 121%
- viability, T/C [2]: 94.7%
- viability, T/C [3]: 87.2%
- viability, T/C [4]: 87.9%
- viability, T/C [5]: 91.7%
- viability, T/C [6]: 104%
- viability, T/C [7]: 70.8%
- viability, T/C [8]: 72.7%
- viability, T/C [9]: 68.9%
- viability, T/C [10]: 80.9%
- viability, T/C [11]: 86.6%
- viability, T/C [12]: 93.5%
- viability, T/C [13]: 37.9%
- viability, T/C [14]: 36.1%
- viability, T/C [15]: 37.9%
- viability, T/C [16]: 46.5%
- viability, T/C [17]: 46.4%
- viability, T/C [18]: 44.5%
- viability, T/C [19]: 5.76%
- viability, T/C [20]: 9.94%
- viability, T/C [21]: 5.5%
- viability, T/C [22]: 5.99%
- viability, T/C [23]: 5.05%
- viability, T/C [24]: 5.13%
- viability, T/C [25]: 5.86%
- viability, T/C [26]: 6.15%
- viability, T/C [27]: 6.62%
- viability, T/C [28]: 4.48%
- viability, T/C [29]: 5.63%
- viability, T/C [30]: 8.05%
- viability, T/C [31]: 5.01%
- viability, T/C [32]: 2.99%
- viability, T/C [33]: 2.11%
- viability, T/C [34]: 1.75%
- viability, T/C [35]: 1.53%
- viability, T/C [36]: 1.67%

SMILES: COC1C=CCC(C)C(C)S(=O)(=O)NC(=O)c2ccc3c(c2)N(CC2CCC21)CC1(CCCc2cc(Cl)ccc21)CO3 (centres undefined) + CN1CCN(c2cc(C(=O)Nc3cc4cc(-c5cnn(C)c5)ccc4cn3)ccn2)CC1
- IC50 (second compound 0.0316 µM): 1750 nM
- IC50 (second compound 0.1 µM): 773 nM
- IC50 (second compound 0.316 µM): < 31.6 nM
- IC50 (second compound 1 µM): < 31.6 nM
- IC50 (second compound 3.16 µM): < 31.6 nM
- IC50 (second compound 10 µM): < 31.6 nM
- viability, T/C [1]: 95.5%
- viability, T/C [2]: 89.9%
- viability, T/C [3]: 83.1%
- viability, T/C [4]: 51.5%
- viability, T/C [5]: 55%
- viability, T/C [6]: 40.1%
- viability, T/C [7]: 85%
- viability, T/C [8]: 68.4%
- viability, T/C [9]: 63.3%
- viability, T/C [10]: 40.8%
- viability, T/C [11]: 46.4%
- viability, T/C [12]: 43.6%
- viability, T/C [13]: 36.8%
- viability, T/C [14]: 34%
- viability, T/C [15]: 30.2%
- viability, T/C [16]: 20.7%
- viability, T/C [17]: 13.6%
- viability, T/C [18]: 13.3%
- viability, T/C [19]: 7.48%
- viability, T/C [20]: 5.89%
- viability, T/C [21]: 7.05%
- viability, T/C [22]: 7.13%
- viability, T/C [23]: 5.61%
- viability, T/C [24]: 7.24%
- viability, T/C [25]: 5.37%
- viability, T/C [26]: 6.94%
- viability, T/C [27]: 7.7%
- viability, T/C [28]: 7.72%
- viability, T/C [29]: 7.14%
- viability, T/C [30]: 6.03%
- viability, T/C [31]: 3.03%
- viability, T/C [32]: 1.85%
- viability, T/C [33]: 2.06%
- viability, T/C [34]: 6.57%
- viability, T/C [35]: 2.43%
- viability, T/C [36]: 1.39%
